Assay results from patent US20220041606A1, “POSITIVE ALLOSTERIC MODULATORS OF THE MUSCARINIC ACETYLCHOLINE RECEPTOR M1” (Vanderbilt University, priority 2020, published 2022).
pEC50: −log10 of the molar value.

What was measured:
human mAChR M1 [1] = biological target: T1, human mAChR M1 (Homo sapiens, UniProt P11229); assay: mAChR M1 cell-based functional assay (calcium mobilization), agonist activity upon compound addition; settings: CHO-K1 cells expressing hM1; for pEC50: compound alone, before acetylcholine addition; for Emax: relative to the maximum for acetylcholine
T1 construct: host or cells: CHO-K1 cells (ATCC), stably transfected using Lipofectamine2000
T1 sequence (P11229 1-460): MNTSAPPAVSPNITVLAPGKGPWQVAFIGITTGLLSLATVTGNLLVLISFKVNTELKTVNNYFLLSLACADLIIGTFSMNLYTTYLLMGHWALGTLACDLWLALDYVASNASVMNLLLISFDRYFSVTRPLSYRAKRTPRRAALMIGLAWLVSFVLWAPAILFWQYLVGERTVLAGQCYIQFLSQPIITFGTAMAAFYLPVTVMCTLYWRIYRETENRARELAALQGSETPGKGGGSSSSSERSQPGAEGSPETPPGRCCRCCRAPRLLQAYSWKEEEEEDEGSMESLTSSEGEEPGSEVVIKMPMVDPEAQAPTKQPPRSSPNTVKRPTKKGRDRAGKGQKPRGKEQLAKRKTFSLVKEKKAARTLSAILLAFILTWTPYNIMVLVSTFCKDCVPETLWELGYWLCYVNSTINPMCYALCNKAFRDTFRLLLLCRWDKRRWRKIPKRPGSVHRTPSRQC
Source text: (§1) Chinese hamster ovary (CHO-K1) cells stably expressing rat (r)M1 were purchased from the American Type Culture Collection and cultured according to their indicated protocol. CHO cells stably expressing human (h)M2, hM3, and hM5 were described previously (Levey, et al., 1991); hM1 and hM4 cDNAs were purchased from Missouri S&T cDNA Resource; rM4 cDNA was provided by T. L. Bonner (National Institutes of Health, Bethesda, MID). rM2 and rM3 were cloned from a rat brain cDNA library and sequence verified. hM1, rM2, rM3, hM4, and rM4 cDNAs were used to stably transfect CHO-K1 cells purchased from the American Type Culture Collection using Lipofectamine2000. To make stable rM2, hM2, rM3, hM4, and rM4 cell lines for use in calcium mobilization assays, these cells also were stably transfected with a chimeric G-protein (Gqi5) (provided by B. R. Conklin, University of California, San Francisco) using Lipofectamine 2000. rM1, hM1, rM3, hM3, rM5, and hM5 cells were grown in Ham's F-12 medium containing 10% heat-inactivated fetal bovine serum (FBS), 20 mM HEPES, and 50 μg/mL G418 sulfate. rM2-Gq15, hM2-Gqi5, and hM4-Gqi5 cells were grown in the same medium also containing 500 μg/mL Hygromycin B. Stable rM4-Gqi5 cells were grown in DMEM containing 10% heat-inactivated FBS, 20 mM HEPES, 400 μg/mL G418 sulfate, and 500 μg/mL Hygromycin B.
(§2) For high throughput measurement of agonist-evoked increases in intracellular calcium, CHO-K1 cells stably expressing muscarinic receptors were plated in growth medium lacking G418 and hygromycin at 15,000 cells/20 μL/well in Greiner 384-well black-walled, tissue culture (TC)-treated, clear-bottom plates (VWR). Cells were incubated overnight at 37° C. and 5% CO2. The next day, cells were washed using an ELX 405 (BioTek) with four washes (80 μL) of assay buffer then aspirated to 20 μL. Next, 20 μL of 16 μM Fluo-4/acetoxymethyl ester (Invitrogen, Carlsbad, Calif.) prepared as a 2.3 mM stock in DMSO and mixed in a 1:1 ratio with 10% (w/v) Pluronic F-127 and diluted in assay buffer was added to the wells and the cell plates were incubated for 50 min at 37° C. and 5% CO2. Dye was removed by washing with the ELX 405 (four 80 μL washes of assay buffer) then aspirated to 20 μL. Compound master plates were formatted in an 11 point CRC format (1:3 dilutions) in 100% DMSO with a starting concentration of 10 mM using the BRAVO liquid handler (Agilent). Test compound CRCs were then transferred to daughter plates (240 nL) using the Echo acoustic plate reformatter (Labcyte, Sunnyvale, Calif.) and then diluted into assay buffer (40 μL) to a 2× stock using a Thermo Fisher Combi (Thermo Fisher Scientific, Waltham, Mass.).
(§3) Calcium flux was measured using the Functional Drug Screening System (FDSS) 6000 (Hamamatsu Corporation, Tokyo, Japan) as an increase in the fluorescent static ratio. Compounds were applied to cells (20 μL, 2×) using the automated system of the FDSS 6000 at 4 s into the 300 s protocol and the data were collected at 1 Hz. At 144 s into the 300s protocol, 10 μL of an EC20 concentration of the muscarinic receptor agonist acetylcholine was added (5×), followed by the addition of 12 μL an EC80 concentration of acetylcholine at the 230 s time point (5×). Agonist activity was analyzed as a concentration-dependent increase in calcium mobilization upon compound addition. Emax values for agonist activity are expressed relative to the maximum for acetylcholine. Positive allosteric modulator activity was analyzed as a concentration-dependent increase in the EC20 acetylcholine response. Antagonist activity was analyzed as a concentration-dependent decrease in the EC80 acetylcholine response. Concentration-response curves were generated using a four-parameter logistical equation in XLfit curve fitting software (IDBS, Bridgewater, N.J.) for Excel (Microsoft, Redmond, Wash.) or Prism (GraphPad Software, Inc., San Diego, Calif.). […]

human mAChR M1 [2] = biological target: T1, human mAChR M1; assay: mAChR M1 cell-based functional assay (calcium mobilization), PAM activity: increase in the EC20 acetylcholine response; settings: CHO-K1 cells expressing hM1; potentiation of EC20 acetylcholine response
Source text: as §1, §2, §3

Row | Compound | pEC50 (human mAChR M1 [1]) | Emax (human mAChR M1 [1]) | pEC50 (human mAChR M1 [2]) | Emax (human mAChR M1 [2])
1 | Cn1cc2c(-c3cc(F)c(Cn4cc(C(=O)N[C@H]5CCCC[C@@H]5O)c5ncccc5c4=O)c(F)c3)cccc2n1 [Compound A22, 6-(2,6-difluoro-4-(2-methyl-2H-indazol-4-yl)benzyl)-N-((1S,2S)-2-hydroxycyclohexyl)-5-oxo-5,6-dihydro-1,6-naphthyridine-8-carboxamide] | < 5.00 | < 5% | 7.28 | 67%
2 | Cn1cc2c(-c3cc(F)c(Cn4cc(C(=O)N[C@H]5CCC[C@@H]5O)c5nccnc5c4=O)c(F)c3)cccc2n1 [Compound A68, 6-(2,6-difluoro-4-(2-methyl-2H-indazol-4-yl)benzyl)-N-((1S,2S)-2-hydroxycyclopentyl)-5-oxo-5,6-dihydropyrido[3,4-b]pyrazine-8-carboxamide] | – | 8% | 5.92 | 74%
3 | Cc1ccc(-c2cc(F)c(Cn3cc(C(=O)N[C@H]4CCCC[C@@H]4O)c4ncccc4c3=O)c(F)c2)cn1 [Compound A35, 6-(2,6-difluoro-4-(6-methylpyridin-3-yl)benzyl)-N-((1S,2S)-2-hydroxycyclohexyl)-5-oxo-5,6-dihydro-1,6-naphthyridine-8-carboxamide] | < 5.00 | < 5% | 6.26 | 48%
4 | O=C(N[C@H]1CCOC[C@@H]1O)c1cn(Cc2ccc(-n3cccn3)cc2)c(=O)c2cccnc12 [Compound A12, 6-(4-(1H-pyrazol-1-yl)benzyl)-N-((3R,4S)-3-hydroxytetrahydro-2H-pyran-4-yl)-5-oxo-5,6-dihydro-1,6-naphthyridine-8-carboxamide] | – | 28% | 5.86 | 70%
5 | Cc1ccc(-c2cc(F)c(Cn3cc(C(=O)N[C@H]4CCOC[C@@H]4O)c4ncccc4c3=O)c(F)c2)cn1 [Compound A34, 6-(2,6-difluoro-4-(6-methylpyridin-3-yl)benzyl)-N-((3R,4S)-3-hydroxytetrahydro-2H-pyran-4-yl)-5-oxo-5,6-dihydro-1,6-naphthyridine-8-carboxamide] | 5.54 | 12% | 6.21 | 65%
6 | Cn1ccc(-c2ccc(Cn3cc(C(=O)N[C@@H]4CC[C@H]4O)c4ncccc4c3=O)c(F)c2)n1 [Compound A4, 6-(2-fluoro-4-(1-methyl-1H-pyrazol-3-yl)benzyl)-N-((1R,2R)-2-hydroxycyclobutyl)-5-oxo-5,6-dihydro-1,6-naphthyridine-8-carboxamide] | < 5.00 | < 5% | 5.46 | 42%
7 | Cc1cc(-c2cc(F)c(Cn3cc(C(=O)N[C@H]4CCC[C@@H]4O)c4ncccc4c3=O)c(F)c2)ccn1 [Compound A38, 6-(2,6-difluoro-4-(2-methylpyridin-4-yl)benzyl)-N-((1S,2S)-2-hydroxycyclopentyl)-5-oxo-5,6-dihydro-1,6-naphthyridine-8-carboxamide] | < 5.00 | < 5% | 6.24 | 25%
8 | Cn1cc(-c2ccc(Cn3cc(C(=O)N[C@H]4CCCC[C@@H]4O)c4ncccc4c3=O)cc2)cn1 [Compound A86, N-((1S,2S)-2-hydroxycyclohexyl)-6-(4-(1-methyl-1H-pyrazol-4-yl)benzyl)-5-oxo-5,6-dihydro-1,6-naphthyridine-8-carboxamide] | < 5.00 | < 5% | 6.43 | 52%
9 | O=C(N[C@H]1CCCCC[C@@H]1O)c1cn(Cc2ccc(-c3cscn3)cc2)c(=O)c2cccnc12 [Compound A60, N-((1S,2S)-2-hydroxycycloheptyl)-5-oxo-6-(4-(thiazol-4-yl)benzyl)-5,6-dihydro-1,6-naphthyridine-8-carboxamide] | < 5.00 | < 5% | 6.21 | 34%

Next, values leading:

Row | pEC50 (human mAChR M1 [1]) | Emax (human mAChR M1 [1]) | pEC50 (human mAChR M1 [2]) | Emax (human mAChR M1 [2]) | Compound
10 | < 5.00 | < 5% | ≤ 5.00 | 30% | Cc1cn2c(=O)n(Cc3ccc(-n4cccn4)cc3)cc(C(=O)N[C@H]3CCOC[C@@H]3O)c2n1 [Compound B27, 6-(4-(1H-pyrazol-1-yl)benzyl)-N-((3R,4S)-3-hydroxytetrahydro-2H-pyran-4-yl)-2-methyl-5-oxo-5,6-dihydroimidazo[1,2-c]pyrimidine-8-carboxamide]
11 | – | 29% | 5.70 | 72% | Cn1cc(-c2ccc(Cn3cc(C(=O)N[C@@H]4CC[C@H]4O)c4nccn4c3=O)c(F)c2)cn1 [Compound B8, 6-(2-fluoro-4-(1-methyl-1H-pyrazol-4-yl)benzyl)-N-((1R,2R)-2-hydroxycyclobutyl)-5-oxo-5,6-dihydroimidazo[1,2-c]pyrimidine-8-carboxamide]
12 | – | 17% | 5.69 | 61% | Cn1cc(-c2ccc(Cn3cc(C(=O)NC4CC5(COC5)C4)c4nccn4c3=O)c(F)c2)cn1 [Compound B9, 6-(2-fluoro-4-(1-methyl-1H-pyrazol-4-yl)benzyl)-5-oxo-N-(2-oxaspiro[3.3]heptan-6-yl)-5,6-dihydroimidazo[1,2-c]pyrimidine-8-carboxamide]
13 | 5.28 | 24% | 7.03 | 84% | Cn1cc2c(-c3cc(F)c(Cn4cc(C(=O)N[C@H]5CCOC[C@@H]5O)c5nccn5c4=O)c(F)c3)cccc2n1 [Compound B18, 6-(2,6-difluoro-4-(2-methyl-2H-indazol-4-yl)benzyl)-N-((3R,4S)-3-hydroxytetrahydro-2H-pyran-4-yl)-5-oxo-5,6-dihydroimidazo[1,2-c]pyrimidine-8-carboxamide]
14 | < 5.00 | 11% | 5.67 | 81% | Cn1cc(-c2ccc(Cn3cc(C(=O)N[C@H]4CCCC[C@@H]4O)c4occc4c3=O)c(F)c2)cn1 [Compound D13, 5-(2-fluoro-4-(1-methyl-1H-pyrazol-4-yl)benzyl)-N-((1S,2S)-2-hydroxycyclohexyl)-4-oxo-4,5-dihydrofuro[3,2-c]pyridine-7-carboxamide]
15 | < 5.00 | < 5% | 5.03 | 33% | Cc1cn2c(=O)n(Cc3ccc(-c4ccn(C)n4)cc3F)cc(C(=O)N[C@H]3CCOC[C@@H]3O)c2n1 [Compound B25, 6-(2-fluoro-4-(1-methyl-1H-pyrazol-3-yl)benzyl)-N-((3R,4S)-3-hydroxytetrahydro-2H-pyran-4-yl)-2-methyl-5-oxo-5,6-dihydroimidazo[1,2-c]pyrimidine-8-carboxamide]
